Results from ChEMBL document CHEMBL3739316, “Novel orally active inhibitors of β-1,3-glucan synthesis derived from enfumafungin” (Bioorg Med Chem Lett, 2015).
Values after ≈ are worked out from the molar mass of the structure shown.

Experiments:
Beta-1,3-glucan synthase = target: T1, Beta-1,3-glucan synthase (Candida albicans, UniProt O13383); test: Displacement of UDP-[3H]glucose from beta-1,3-glucan synthase in Candida albicans MY1055 microsomal membranes incubated for 2 hrs
T1 sequence (O13383 whole entry): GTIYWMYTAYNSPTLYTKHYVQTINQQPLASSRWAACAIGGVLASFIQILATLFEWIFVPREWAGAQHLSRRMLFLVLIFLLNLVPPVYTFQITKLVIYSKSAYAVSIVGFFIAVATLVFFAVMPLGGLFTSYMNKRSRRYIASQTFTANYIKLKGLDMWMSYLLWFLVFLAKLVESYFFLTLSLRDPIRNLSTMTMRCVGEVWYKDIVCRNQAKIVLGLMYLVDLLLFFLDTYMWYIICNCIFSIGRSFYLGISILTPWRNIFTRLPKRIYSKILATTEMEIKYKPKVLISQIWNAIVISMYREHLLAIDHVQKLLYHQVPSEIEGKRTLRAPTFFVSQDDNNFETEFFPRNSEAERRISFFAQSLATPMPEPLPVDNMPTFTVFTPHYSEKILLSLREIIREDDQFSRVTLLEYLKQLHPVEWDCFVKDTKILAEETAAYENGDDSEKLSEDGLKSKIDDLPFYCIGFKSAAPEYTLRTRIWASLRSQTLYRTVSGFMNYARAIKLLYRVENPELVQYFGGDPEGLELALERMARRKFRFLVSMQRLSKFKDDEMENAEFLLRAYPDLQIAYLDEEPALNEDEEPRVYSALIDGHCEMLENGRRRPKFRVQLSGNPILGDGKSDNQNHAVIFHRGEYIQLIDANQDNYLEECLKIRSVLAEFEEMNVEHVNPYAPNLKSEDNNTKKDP

Candida albicans [1] = test: Antifungal activity against Candida albicans MY1055 after 24 hrs by liquid microdilution assay; type: functional; details: MY1055, 24 h
Aspergillus fumigatus = test: Antifungal activity against Aspergillus fumigatus MF5668 after 24 hrs by liquid microdilution assay; type: functional; details: MF5668, 24 h, read-out: MEC
Candida albicans [2] = test: Antifungal activity against Candida albicans MY1055 after 24 hrs by liquid microdilution assay in presence of human serum; type: functional; details: MY1055, 24 h
Mus musculus [3] = test: Dose normalized AUC in orally dosed mouse; type: ADME, organism-based; details: in vivo, po
[4] = Oral bioavailability in mouse; type: ADME, organism-based; details: in vivo
Candida albicans [5] = test: Antifungal activity against Candida albicans MY1055 in DBA/2 mouse candidiasis model assessed as change in CFU per gram of kidney at 25 mg/kg, po bid after 4 days by Target Organ Kidney Assay relative to sham treated control; type: functional
Candida albicans [6] = test: Antifungal activity against Candida albicans MY1055 in DBA/2 mouse candidiasis model assessed as change in CFU per gram of kidney at 12.5 mg/kg, po bid after 4 days by Target Organ Kidney Assay relative to sham treated control; type: functional
Candida albicans [7] = test: Antifungal activity against Candida albicans MY1055 in DBA/2 mouse candidiasis model assessed as change in CFU per gram of kidney at 6.25 mg/kg, po bid after 4 days by Target Organ Kidney Assay relative to sham treated control; type: functional
Mus musculus [8] = test: Drug level in DBA/2J mouse treated with 13f at 10 mg/kg, po; type: ADME, organism-based; details: in vivo
Rattus norvegicus = test: Dose normalized AUC in orally dosed rat; type: ADME, organism-based; details: in vivo, po
[9] = Oral bioavailability in rat; type: ADME, organism-based; details: in vivo
Candida albicans [10] = test: Antifungal activity against Candida albicans MY1055 in DBA/2 mouse candidiasis model assessed as change in CFU per gram of kidney at 25 mg/kg, ip bid after 4 days by Target Organ Kidney Assay relative to sham treated control; type: functional
Candida albicans [11] = test: Antifungal activity against Candida albicans MY1055 in DBA/2 mouse candidiasis model assessed as change in CFU per gram of kidney at 12.5 mg/kg, ip bid after 4 days by Target Organ Kidney Assay relative to sham treated control; type: functional
Candida albicans [12] = test: Antifungal activity against Candida albicans MY1055 in DBA/2 mouse candidiasis model assessed as change in CFU per gram of kidney at 6.25 mg/kg, ip bid after 4 days by Target Organ Kidney Assay relative to sham treated control; type: functional
Candida albicans [13] = test: Antifungal activity against Candida albicans MY1055 in DBA/2 mouse candidiasis model assessed as change in CFU per gram of kidney at 12.5 mg/kg, ip bid after 7 days by Target Organ Kidney Assay relative to sham treated control; type: functional
Candida albicans [14] = test: Antifungal activity against Candida albicans MY1055 in DBA/2 mouse candidiasis model assessed as change in CFU per gram of kidney at 25 mg/kg, po bid after 7 days by Target Organ Kidney Assay relative to sham treated control; type: functional
Candida albicans [15] = test: Antifungal activity against Candida albicans MY1055 in DBA/2 mouse candidiasis model assessed as change in CFU per gram of kidney at 12.5 mg/kg, po bid after 7 days by Target Organ Kidney Assay relative to sham treated control; type: functional
Candida albicans [16] = test: Antifungal activity against Candida albicans MY1055 in DBA/2 mouse candidiasis model assessed as change in CFU per gram of kidney at 6.25 mg/kg, po bid after 7 days by Target Organ Kidney Assay relative to sham treated control; type: functional
Candida albicans [17] = test: Antifungal activity against Candida albicans MY1055 in DBA/2N mouse candidiasis model assessed as mouse survival at 12.5 mg/kg, ip bid after 7 days by Target Organ Kidney Assay relative to sham treated control; type: functional; details: 168 h
Candida albicans [18] = test: Antifungal activity against Candida albicans MY1055 in DBA/2N mouse candidiasis model assessed as mouse survival at 25 mg/kg, po bid after 7 days by Target Organ Kidney Assay relative to sham treated control; type: functional; details: 168 h
Candida albicans [19] = test: Antifungal activity against Candida albicans MY1055 in DBA/2N mouse candidiasis model assessed as mouse survival at 12.5 mg/kg, po bid after 7 days by Target Organ Kidney Assay relative to sham treated control; type: functional; details: 168 h
Candida albicans [20] = test: Antifungal activity against Candida albicans MY1055 in DBA/2N mouse candidiasis model assessed as mouse survival at 6.25 mg/kg, po bid after 4 days by Target Organ Kidney Assay relative to sham treated control; type: functional; details: 96 h
Candida albicans [21] = test: Antifungal activity against Candida albicans MY1055 in DBA/2N mouse candidiasis model assessed as reduction of fungal burden after 7 days; type: functional; details: MY1055, 168 h
[22] = AUC (0 to 24 hrs) in DBA/2J mouse at 10 mg/kg, po; type: ADME, organism-based; parameters: dose 10 mg/kg, time < 24 hr, route oral; details: in vivo
Mus musculus [23] = test: AUC (0 to 24 hrs) in DBA/2J mouse assessed as metabolite 13c at 10 mg/kg, po; type: ADME, organism-based; parameters: dose 10 mg/kg, time < 24 hr, route oral; details: in vivo
Mus musculus [24] = test: AUC (0 to 24 hrs) in DBA/2J mouse assessed as total metabolites at 10 mg/kg, po; type: ADME, organism-based; details: in vivo

| Structure (SMILES) | IC50 (Beta-1,3-glucan synthase) [nM] | MIC (Candida albicans [1]) [µg/mL] | minimal effective concentration (Aspergillus fumigatus) [µg/mL] | MIC (Candida albicans [2]) [µg/mL] | AUC/dose (Mus musculus [3]) [µM·kg·h/mg] | bioavailability [4] [%] | Activity (Candida albicans [5]) [deltalog10CFU] | Activity (Candida albicans [6]) [deltalog10CFU] | Activity (Candida albicans [7]) [deltalog10CFU] | Activity (Candida albicans [13]) [deltalog10CFU] | Activity (Candida albicans [14]) [deltalog10CFU] | Activity (Candida albicans [15]) [deltalog10CFU] | Activity (Candida albicans [16]) [deltalog10CFU] | survival at 12.5 mg/kg (Candida albicans [17]) [%] | survival at 25 mg/kg (Candida albicans [18]) [%] | survival at 12.5 mg/kg (Candida albicans [19]) [%] | survival at 6.25 mg/kg (Candida albicans [20]) [%] | ED99 (Candida albicans [21]) [mg/kg] | AUC(0-t) at 24 h [22] [µM·h] | AUC (Mus musculus [23]) [µM·h] | other results |
| --- | --- | --- | --- | --- | --- | --- | --- | --- | --- | --- | --- | --- | --- | --- | --- | --- | --- | --- | --- | --- | --- |
| CC(C)[C@@H](C)[C@@]1(C)CC[C@]2(C)[C@H]3CC[C@H]4C5(C)COC[C@@]4(C[C@@H](n4nnc(N)n4)[C@@H]5OC[C@](C)(N)C(C)C)C3=CC[C@@]2(C)[C@@H]1C(=O)O | 3.05 | < 0.03 | < 0.03 | 2 | 0.14 | 14 | -2.2 | -0.3 | -0.1 | – | – | – | – | – | – | – | – | – | – | – | Drug metabolism (Mus musculus [8]): metabolite_detected |
| CC(=O)O[C@@H]1C[C@@]23COCC(C)([C@H]1O[C@@H]1O[C@H](CO)[C@@H](O)[C@H](O)[C@H]1O)[C@@H]2CC[C@H]1C3=CC[C@@]2(C)[C@H](C(=O)O)[C@@](C)([C@H](C)C(C)C)CC[C@]12C | 86.6 | 0.25 (≈ 0.361 µM) | < 0.03 | 8 | – | – | – | – | – | – | – | – | – | – | – | – | – | – | – | – | AUC/dose (Rattus norvegicus): 0.01 µM·kg·h/mg; bioavailability [9]: 1% |
| CC(=O)O[C@@H]1C[C@@]23COCC(C)([C@H]1OCCN)[C@@H]2CC[C@H]1C3=CC[C@@]2(C)[C@H](C(=O)O)[C@@](C)([C@H](C)C(C)C)CC[C@]12C | 81.9 | 1 (≈ 1.74 µM) | < 0.03 | 32 | 0.54 | 24 | – | – | – | – | – | – | – | – | – | – | – | – | – | – | Activity (Candida albicans [10]): -0.7 deltalog10CFU; Activity (Candida albicans [11]): -0.4 deltalog10CFU; Activity (Candida albicans [12]): -0.3 deltalog10CFU |
| CCCN[C@@](C)(CO[C@H]1[C@H](n2nnc(N)n2)C[C@@]23COCC1(C)[C@@H]2CC[C@H]1C3=CC[C@@]2(C)[C@H](C(=O)O)[C@@](C)([C@H](C)C(C)C)CC[C@]12C)C(C)C | 11.5 | 0.06 (≈ 0.0861 µM) | < 0.03 | 16 | 0.35 | 25 | -3 | -2.4 | -1.1 | -2.98 | -2.9 | -1.53 | -2.04 | 100 | 100 | 100 | 40 | 10 | 3.13 | 0.36 | Drug uptake (Mus musculus [24]): 10.3% |
| CCN[C@@](C)(CO[C@H]1[C@H](n2nnc(N)n2)C[C@@]23COCC1(C)[C@@H]2CC[C@H]1C3=CC[C@@]2(C)[C@H](C(=O)O)[C@@](C)([C@H](C)C(C)C)CC[C@]12C)C(C)C | 7.32 | 0.06 (≈ 0.0878 µM) | < 0.03 | 8 | 0.44 | 11 | -2.8 | -2.6 | -0.7 | -3.26 | -2.8 | -2.54 | 0.72 | 100 | 100 | 60 | 20 | 13 | 4.22 | 0.29 | Drug uptake (Mus musculus [24]): 6.4% |
| CN[C@@](C)(CO[C@H]1[C@H](n2nnc(N)n2)C[C@@]23COCC1(C)[C@@H]2CC[C@H]1C3=CC[C@@]2(C)[C@H](C(=O)O)[C@@](C)([C@H](C)C(C)C)CC[C@]12C)C(C)C | 2.99 | < 0.03 | < 0.03 | 4 | 0.12 | 9 | -2.5 | -1.9 | -1.5 | -3.89 | -2.54 | 0.89 | -0.61 | 100 | 100 | 20 | 20 | 19 | 1.06 | 0.005 | Drug uptake (Mus musculus [24]): 0.5%; Drug metabolism (Mus musculus [8]): metabolite_detected |
